Assay results: ChEMBL document CHEMBL6177993, “De Novo 3-(Phenylcarbamoyl) Benzoate Analogues: Efficacy against Multidrug-Resistant S. aureus and Elucidation of the Biodistribution Profile” (J Med Chem, 2025)
In brackets after ≈: the same amount, converted by molar mass. Activity calls are given as the source filed them. No cut-off for these calls is given here.

What was measured:
[1] = tested on: Staphylococcus aureus; assay: Drug resistance, ratio of MIC for Staphylococcus aureus ATCC 29213 after 20 passages exposure to MIC for Staphylococcus aureus ATCC 29213 during first exposure; assay type: functional
[2] = tested on: Staphylococcus aureus; assay: Inhibition of biofilm in Staphylococcus aureus ATCC 29213 at 0.5 times MIC measured after 12 hrs by crystal violet staining based analysis relative to control; assay type: functional
[3] = tested on: Staphylococcus aureus; assay: Antibacterial activity against methicillin-resistant Staphylococcus aureus NRS 129 assessed as reduction in bacterial growth measured after 18 to 24 hrs by broth microdilution method; assay type: functional; conditions: time 18-24 hrs
[4] = tested on: Cell membrane; assay: Disruption of cell membrane in Staphylococcus aureus ATCC 29213 assessed as increase in red fluorescence at 5 to 10 times MIC measured after 4 hrs by DAPI and PI staining based fluorescence microscopic analysis
[5] = tested on: Staphylococcus aureus; assay: Antibacterial activity against methicillin-resistant Staphylococcus aureus NRS 119 assessed as reduction in bacterial growth measured after 18 to 24 hrs by broth microdilution method; assay type: functional; conditions: time 18-24 hrs
[6] = tested on: Staphylococcus aureus; assay: Antibacterial activity against methicillin-resistant Staphylococcus aureus NRS 193 assessed as reduction in bacterial growth measured after 18 to 24 hrs by broth microdilution method; assay type: functional; conditions: time 18-24 hrs
[7] = tested on: Acinetobacter baumannii; assay: Antibacterial activity against Acinetobacter baumannii BAA 1605 assessed as reduction in bacterial growth measured after 18 to 24 hrs by broth microdilution method; assay type: functional; conditions: time 18-24 hrs
[8] = tested on: Klebsiella pneumoniae; assay: Antibacterial activity against Klebsiella pneumoniae BAA 1705 assessed as reduction in bacterial growth measured after 18 to 24 hrs by broth microdilution method; assay type: functional; conditions: time 18-24 hrs
[9] = tested on: Staphylococcus aureus; assay: Antibacterial activity against methicillin-resistant Staphylococcus aureus NRS 186 assessed as reduction in bacterial growth measured after 18 to 24 hrs by broth microdilution method; assay type: functional; conditions: time 18-24 hrs
[10] = tested on: Staphylococcus aureus; assay: Induction of morphological changes in Staphylococcus aureus ATCC 29213 assessed as cell shrinkage by measuring cells height at 10 times MIC measured after 4 hrs by atomic force microscopy based analysis (reference value: 170.8 nanometer); assay type: functional
[11] = tested on: Staphylococcus aureus; assay: Induction of morphological changes in Staphylococcus aureus ATCC 29213 assessed as cell shrinkage at 10 times MIC measured after 4 hrs by atomic force microscopy based analysis (reference value: 60.170 nanometer); assay type: functional
[12] = tested on: Staphylococcus aureus; assay: Induction of morphological changes in Staphylococcus aureus ATCC 29213 assessed as cell deformation at 2 to 10 times MIC measured after 4 hrs by Scanning electron microscopy based analysis; assay type: functional, organism-based
[13] = tested on: Staphylococcus aureus; assay: Synergistic antibacterial activity against Staphylococcus aureus ATCC 29213 assessed as fractional inhibitory concentration index in presence of levofloxacin by checkerboard assay; assay type: functional
[14] = Solubility of the compound in distilled water; assay type: physicochemical; conditions: buffer
[15] = tested on: Staphylococcus aureus; assay: Induction of morphological changes in Staphylococcus aureus ATCC 29213 assessed as accumulation of cellular debris at 2 to 10 times MIC measured after 4 hrs by Scanning electron microscopy based analysis; assay type: functional, organism-based
[16] = tested on: Staphylococcus aureus; assay: Inhibition of biofilm in Staphylococcus aureus ATCC 29213 at 2 ug/ml measured after 12 hrs by crystal violet staining based analysis; assay type: functional, organism-based; conditions: dose 2.0 µg/ml
[17] = tested on: Staphylococcus aureus; assay: Induction of morphological changes in Staphylococcus aureus ATCC 29213 assessed as appearance of cell surface fold at 2 to 10 times MIC measured after 4 hrs by Scanning electron microscopy based analysis; assay type: functional, organism-based
[18] = tested on: Staphylococcus aureus; assay: Inhibition of biofilm in Staphylococcus aureus ATCC 29213 at 2 times MIC measured after 12 hrs by crystal violet staining based analysis relative to control; assay type: functional
[19] = tested on: Staphylococcus aureus; assay: Antibacterial activity against vacomycin-resistant Staphylococcus aureus VRS 4 assessed as reduction in bacterial growth measured after 18 to 24 hrs by broth microdilution method; assay type: functional; conditions: time 18-24 hrs
[20] = target: T1, UDP-N-acetylenolpyruvoylglucosamine reductase (Staphylococcus aureus, UniProt P61431); assay: Binding affinity to Staphylococcus aureus MurB assessed as inhibition constant
T1 sequence (P61431 whole entry): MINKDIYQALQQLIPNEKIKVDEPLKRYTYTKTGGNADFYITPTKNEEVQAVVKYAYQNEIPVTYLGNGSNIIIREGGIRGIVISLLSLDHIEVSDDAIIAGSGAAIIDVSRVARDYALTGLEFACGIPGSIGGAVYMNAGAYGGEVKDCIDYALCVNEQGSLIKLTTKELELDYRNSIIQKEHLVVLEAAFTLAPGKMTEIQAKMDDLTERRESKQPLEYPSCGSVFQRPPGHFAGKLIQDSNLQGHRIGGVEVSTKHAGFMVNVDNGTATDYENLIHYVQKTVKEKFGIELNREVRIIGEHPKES

[21] = Solubility of the compound in DMSO/DMF; assay type: physicochemical
[22] = tested on: Staphylococcus aureus; assay: Antibacterial activity against Staphylococcus aureus ATCC 29213 measured after 20 passages; assay type: functional, organism-based
[23] = tested on: Escherichia coli; assay: Antibacterial activity against Escherichia coli ATCC 25922 assessed as reduction in bacterial growth measured after 18 to 24 hrs by broth microdilution method; assay type: functional; conditions: time 18-24 hrs
[24] = tested on: Staphylococcus aureus; assay: Antibacterial activity against methicillin-resistant Staphylococcus aureus NRS 192 assessed as reduction in bacterial growth measured after 18 to 24 hrs by broth microdilution method; assay type: functional; conditions: time 18-24 hrs
[25] = tested on: Staphylococcus aureus; assay: Antibacterial activity against vacomycin-resistant Staphylococcus aureus VRS 12 assessed as reduction in bacterial growth measured after 18 to 24 hrs by broth microdilution method; assay type: functional; conditions: time 18-24 hrs
[26] = Hemolytic activity in human Red blood cell at 32 ug/ml measured after 1 hrs by spectrophotometric analysis relative to control; assay type: toxicity, cell-based, Erythrocyte; conditions: red blood cells, at 32 µg/mL, read-out: Activity
[27] = tested on: Staphylococcus aureus; assay: Induction of morphological changes in Staphylococcus aureus ATCC 29213 assessed as leakage of subcellular components at 2 to 10 times MIC measured after 4 hrs by Scanning electron microscopy based analysis; assay type: functional, organism-based
[28] = Binding affinity to Staphylococcus aureus MurZ assessed as inhibition constant
[29] = tested on: Staphylococcus aureus; assay: Inhibition of biofilm in Staphylococcus aureus ATCC 29213 at 1 times MIC measured after 12 hrs by crystal violet staining based analysis relative to control; assay type: functional
[30] = tested on: HEK293; assay: Cytotoxicity against HEK293 cells assessed as cell viability at 1 times MIC measured after 24 hrs by Calcein-AM/PI staining based fluorescence microscopy analysis; assay type: toxicity; conditions: human, hek293, 24 h
[31] = tested on: Cell membrane; assay: Disruption of cell membrane in Staphylococcus aureus ATCC 29213 assessed as increase in PI uptake at 10 times MIC measured after 8 mins by fluorescence based microplate reader analysis
[32] = tested on: Bacillus subtilis; assay: Antibacterial activity against Bacillus subtilis IITKSM1 assessed as reduction in bacterial growth measured after 18 to 24 hrs by broth microdilution method; assay type: functional; conditions: time 18-24 hrs
[33] = tested on: Pseudomonas aeruginosa; assay: Antibacterial activity against Pseudomonas aeruginosa ATCC 27853 assessed as reduction in bacterial growth measured after 18 to 24 hrs by broth microdilution method; assay type: functional; conditions: time 18-24 hrs
[34] = tested on: Staphylococcus aureus; assay: Antibacterial activity against methicillin-sensitive Staphylococcus aureus ATCC 29213 assessed as reduction in bacterial growth measured after 18 to 24 hrs by broth microdilution method; assay type: functional; conditions: time 18-24 hrs
[35] = tested on: Staphylococcus aureus; assay: Antibacterial activity against vacomycin-resistant Staphylococcus aureus VRS 1 assessed as reduction in bacterial growth measured after 18 to 24 hrs by broth microdilution method; assay type: functional; conditions: time 18-24 hrs
[36] = tested on: Staphylococcus aureus; assay: Antibacterial activity against methicillin-resistant Staphylococcus aureus NRS 198 assessed as reduction in bacterial growth measured after 18 to 24 hrs by broth microdilution method; assay type: functional; conditions: time 18-24 hrs
[37] = tested on: Staphylococcus aureus; assay: Antibacterial activity against Staphylococcus aureus ATCC 29213 assessed as reduction in bacterial growth measured after 18 to 24 hrs by broth microdilution method; assay type: functional; conditions: time 18-24 hrs
[38] = tested on: Enterococcus faecalis; assay: Antibacterial activity against Enterococcus faecalis ATCC 35550 assessed as reduction in bacterial growth measured after 18 to 24 hrs by broth microdilution method; assay type: functional; conditions: time 18-24 hrs
[39] = tested on: Staphylococcus aureus; assay: Synergistic antibacterial activity against Staphylococcus aureus ATCC 29213 assessed as fractional inhibitory concentration index in presence of vancomycin by checkerboard assay; assay type: functional
[40] = tested on: HEK293; assay: Cytotoxicity against HEK293 cells assessed as cell viability measured after 72 hrs by MTT assay; assay type: toxicity, cell-based; conditions: human, hek293, 72 h
[41] = tested on: Staphylococcus aureus; assay: Antibacterial activity against methicillin-resistant Staphylococcus aureus NRS 191 assessed as reduction in bacterial growth measured after 18 to 24 hrs by broth microdilution method; assay type: functional; conditions: time 18-24 hrs
[42] = tested on: Staphylococcus aureus; assay: Induction of morphological changes in Staphylococcus aureus ATCC 29213 assessed as cell shrinkage at 2 to 10 times MIC measured after 4 hrs by Scanning electron microscopy based analysis; assay type: functional, organism-based
[43] = tested on: Staphylococcus aureus; assay: Antibacterial activity against methicillin-resistant Staphylococcus aureus NRS 194 assessed as reduction in bacterial growth measured after 18 to 24 hrs by broth microdilution method; assay type: functional; conditions: time 18-24 hrs
[44] = Binding affinity to Staphylococcus aureus MurA assessed as inhibition constant
[45] = tested on: Staphylococcus aureus; assay: Antibacterial activity against methicillin-resistant Staphylococcus aureus NRS 100 assessed as reduction in bacterial growth measured after 18 to 24 hrs by broth microdilution method; assay type: functional; conditions: time 18-24 hrs
[46] = tested on: Staphylococcus aureus; assay: Induction of morphological changes in Staphylococcus aureus ATCC 29213 assessed as cell shrinkage by measuring cells diameter at 10 times MIC measured after 4 hrs by atomic force microscopy based analysis (reference value: 1.017 micrometer); assay type: functional

SMILES: CCn1cc(C(=O)O)c(=O)c2cc(F)c(N3CCNCC3)cc21 [NORFLOXACIN]
- Ratio [1]: 64

SMILES: CC(C)(C)c1cc(C(c2ccccc2)c2ccccc2)c(NC(=O)c2cccc(C(=O)O)c2)c(C(c2ccccc2)c2ccccc2)c1
- inhibition (INH) [2]: >50%
- MIC [3]: 4 mg/L (≈ 0.00635 mM)
- Activity [4]: Active
- MIC [5]: 4 mg/L (≈ 0.00635 mM)
- MIC [6]: 4 mg/L (≈ 0.00635 mM)
- MIC [7]: > 64 mg/L
- MIC [8]: > 64 mg/L
- MIC [9]: 4 mg/L (≈ 0.00635 mM)
- Activity [10]: 105.1 nm
- Activity [11]: 53.464 nm
- Activity [12]: Active
- fractional inhibitory concentration index (FICI) [13]: 0.75
- solubility [14]: Insoluble
- Activity [15]: Active
- inhibition [16]: Active
- Activity [17]: Active
- inhibition (INH) [18]: 95%
- MIC [19]: 4 mg/L (≈ 0.00635 mM)
- Ki [20]: 2.52 µM
- solubility [21]: 660 mg/mL (≈ 1050 mM)
- Activity [22]: Active
- MIC [23]: > 64 mg/L
- MIC [24]: 4 mg/L (≈ 0.00635 mM)
- MIC [25]: 4 mg/L (≈ 0.00635 mM)
- hemolysis at 1 h, 32 ug/ml [26]: ~25%
- Activity [27]: Active
- Ki [28]: 133 µM
- inhibition (INH) [29]: 95%
- Activity [30]: Toxic
- Activity [31]: Active
- MIC [32]: 1 mg/L (≈ 0.00159 mM)
- MIC [33]: > 64 mg/L
- MIC [34]: 4 mg/L (≈ 0.00635 mM)
- MIC [35]: 4 mg/L (≈ 0.00635 mM)
- MIC [36]: 4 mg/L (≈ 0.00635 mM)
- MIC [37]: 2 mg/L (≈ 0.00318 mM)
- MIC [38]: 1 mg/L (≈ 0.00159 mM)
- fractional inhibitory concentration index (FICI) [39]: 0.258
- Activity [40]: Toxic
- MIC [41]: 4 mg/L (≈ 0.00635 mM)
- Activity [42]: Active
- MIC [43]: 4 mg/L (≈ 0.00635 mM)
- Ki [44]: 117 µM
- MIC [45]: 4 mg/L (≈ 0.00635 mM)
- Activity [46]: 0.68 um
